According to US10913727B2, “Modulators of the integrated stress pathway” (Calico Life Sciences LLC, priority 2016, dated 2021):

What follows are compounds tested on HEK293T cells carrying the ATF4 luciferase reporter (assay: ATF4-Luc assay, in vitro model of Vanishing Cell White Matter Disease (VWMD)). Conditions: Homo sapiens, HEK-293T, 1 μg/mL tunicamycin, 7 hours, One Glo luminescence.
Format: cell-based
In short: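 Reporter cells were stably generated by retroviral transduction and puromycin selection, then seeded at 30,000 cells/well. Next day, cells received 1 μg/mL tunicamycin with 200 nM test compound for 7 h, and luciferase luminescence was read with a one-step reagent. Values reported as EC50.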
Work on `N#Cc1cncc(NC23CC(NC(=O)COc4ccc(Cl)c(F)c4)(C2)C3)n1` [Compound 745, 2-(4-chloro-3-fluorophenoxy)-N-{3-[(6-cyanopyrazin-2-yl)amino]bicyclo[1.1.1]pentan-1-yl}acetamide] yielded an EC50 of over 2000 nM. With `O=C(COc1ccc(F)c(F)c1)NC12CC(Nc3cnc(-c4cccnc4)cn3)(C1)C2` [Compound 731, 2-(3,4-difluorophenoxy)-N-(3-{[5-(pyridin-3-yl)pyrazin-2-yl]amino}bicyclo[1.1.1]pentan-1-yl)acetamide] the EC50 was 1000 to 2000 nM. `Cc1ccc(C(=O)NC23CCC(NC(=O)COc4ccc(Cl)c(F)c4)(CC2)[C@@H](O)C3)nc1` [Compound 729, N-{(3S)-4-[2-(4-chloro-3-fluorophenoxy)acetamido]-3-hydroxybicyclo[2.2.2]octan-1-yl}-5-methylpyridine-2-carboxamide] was tested, and the EC50 was under 50 nM. `O=C(COc1ccc(Cl)c(Cl)c1)NC12CC(NC(=O)c3ccc(CO)cn3)(C1)C2` [Compound 160, N-{3-[2-(3,4-dichlorophenoxy)acetamido]bicyclo[1.1.1]pentan-1-yl}-5-(hydroxymethyl)pyridine-2-carboxamide] showed an EC50 of 250 to 1000 nM. Work on `O=C(COc1ccc(Cl)c(F)c1)NC12CCC(NC(=O)c3ccc(CO)cn3)(CC1)C[C@@H]2O` [Compound 753, N-{(3S)-4-[2-(4-chloro-3-fluorophenoxy)acetamido]-3-hydroxybicyclo[2.2.2]octan-1-yl}-5-(hydroxymethyl)pyridine-2-carboxamide] yielded an EC50 of 250 to 1000 nM. `Cc1cc2c(C(=O)NC34CC(NC(=O)COc5ccc(Cl)c(F)c5)(C3)C4)nccn2n1` [Compound 561, N-{3-[2-(4-chloro-3-fluorophenoxy)acetamido]bicyclo[1.1.1]pentan-1-yl}-2-methylpyrazolo[1,5-a]pyrazine-4-carboxamide] gave an EC50 of over 2000 nM. `O=C(COc1ccc(Cl)c(F)c1)NC12CC(NC(=O)c3ccc(OC(F)(F)F)nc3)(C1)C2` [Compound 132, N-{3-[2-(4-chloro-3-fluorophenoxy)acetamido]bicyclo[1.1.1]pentan-1-yl}-6-(trifluoromethoxy)pyridine-3-carboxamide] was tested, and the EC50 was 50 to 250 nM. `O=C(COc1ccc(Cl)c(F)c1)NC12CCC(NC(=O)c3cc4ccccn4n3)(CC1)CC2O` (stereo not drawn) [Compound 594, N-{4-[2-(4-chloro-3-fluorophenoxy)acetamido]-3-hydroxybicyclo[2.2.2]octan-1-yl}pyrazolo[1,5-a]pyridine-2-carboxamide] was tested, and the EC50 was 50 to 250 nM. With `O=C(COc1ccc(Cl)c(F)c1)NC12CC(NC(=O)c3cc4ccccc4o3)(C1)C2` [Compound 317, N-{3-[2-(4-chloro-3-fluorophenoxy)acetamido]bicyclo[1.1.1]pentan-1-yl}-1-benzofuran-2-carboxamide] the EC50 was under 50 nM. Work on `Cc1cc(C(=O)NC23CC(NC(=O)COc4ccc(Cl)c(F)c4)(C2)C3)n(C)n1` [Compound 241, N-{3-[2-(4-chloro-3-fluorophenoxy)acetamido]bicyclo[1.1.1]pentan-1-yl}-1,3-dimethyl-1H-pyrazole-5-carboxamide] yielded an EC50 of under 50 nM. `CCn1cc(C(=O)NC23CC(NC(=O)COc4ccc(Cl)c(F)c4)(C2)C3)cn1` [Compound 252, N-{3-[2-(4-chloro-3-fluorophenoxy)acetamido]bicyclo[1.1.1]pentan-1-yl}-1-ethyl-1H-pyrazole-4-carboxamide] was tested, and the EC50 was 250 to 1000 nM. Compound `Cn1nccc1C(=O)NC12CCC(NC(=O)COc3ccc(Cl)c(F)c3)(CC1)C(O)C2` (stereo not drawn) [Compound 602, N-{4-[2-(4-chloro-3-fluorophenoxy)acetamido]-3-hydroxybicyclo[2.2.2]octan-1-yl}-1-methyl-1H-pyrazole-5-carboxamide] has an EC50 of 250 to 1000 nM. `Cc1nnc2c(NC34CC(NC(=O)COc5ccc(Cl)c(F)c5)(C3)C4)nccn12` [Compound 465, 2-(4-chloro-3-fluorophenoxy)-N-{3-[(3-methyl[1,2,4]triazolo[4,3-a]pyrazin-8-yl)amino]bicyclo[1.1.1]pentan-1-yl}acetamide] was tested, and the EC50 was over 2000 nM. Work on `COc1c(F)cccc1C(=O)NC12CC(NC(=O)COc3ccc(Cl)c(F)c3)(C1)C2` [Compound 547, N-{3-[2-(4-chloro-3-fluorophenoxy)acetamido]bicyclo[1.1.1]pentan-1-yl}-3-fluoro-2-methoxybenzamide] yielded an EC50 of 1000 to 2000 nM. With `O=C(COc1ccc(Cl)c(F)c1)NC12CC(Nc3nnc(-c4ccccc4)o3)(C1)C2` [Compound 404, 2-(4-chloro-3-fluorophenoxy)-N-{3-[(5-phenyl-1,3,4-oxadiazol-2-yl)amino]bicyclo[1.1.1]pentan-1-yl}acetamide] the EC50 was over 2000 nM. Work on `CC(C)c1ccc(C(=O)NC23CC(NC(=O)COc4ccc(Cl)c(F)c4)(C2)C3)cn1` [Compound 642, N-{3-[2-(4-chloro-3-fluorophenoxy)acetamido]bicyclo[1.1.1]pentan-1-yl}-6-(propan-2-yl)pyridine-3-carboxamide] yielded an EC50 of 1000 to 2000 nM. `O=C(COc1ccc(Cl)c(F)c1)NC12CC(NC(=O)c3cc(F)ccc3F)(C1)C2` [Compound 510, N-{3-[2-(4-chloro-3-fluorophenoxy)acetamido]bicyclo[1.1.1]pentan-1-yl}-2,5-difluorobenzamide] gave an EC50 of 250 to 1000 nM. `CN(C(=O)COc1ccc(Cl)c(F)c1)C12CC(N(C)C(=O)c3cnc(C(F)F)cn3)(C1)C2` [Compound 362, N-(3-{[(4-chloro-3-fluorophenoxy)acetyl](methyl)amino}bicyclo[1.1.1]pentan-1-yl)-5-(difluoromethyl)-N-methylpyrazine-2-carboxamide] showed an EC50 of over 2000 nM. Work on `Cc1cc2c(NC34CC(NC(=O)COc5cccc(F)c5)(C3)C4)nccn2n1` [Compound 640, 2-(3-fluorophenoxy)-N-{3-[(2-methylpyrazolo[1,5-a]pyrazin-4-yl)amino]bicyclo[1.1.1]pentan-1-yl}acetamide] yielded an EC50 of 250 to 1000 nM. `O=C(COc1ccc(Cl)c(F)c1)NC12CC(NC(=O)c3cnc(C(F)F)cn3)(C1)C2` [Compound 134, N-{3-[2-(4-chloro-3-fluorophenoxy)acetamido]bicyclo[1.1.1]pentan-1-yl}-5-(difluoromethyl)pyrazine-2-carboxamide] was tested, and the EC50 was under 50 nM. Compound `CC(C)c1cc(C(=O)NC23CC(NC(=O)COc4ccc(Cl)c(F)c4)(C2)C3)n(C)n1` [Compound 364, N-{3-[2-(4-chloro-3-fluorophenoxy)acetamido]bicyclo[1.1.1]pentan-1-yl}-1-methyl-3-(propan-2-yl)-1H-pyrazole-5-carboxamide] has an EC50 of 50 to 250 nM. `CCOc1cc(C)nc(NC23CC(NC(=O)COc4ccc(Cl)c(F)c4)(C2)C3)n1` [Compound 383, 2-(4-chloro-3-fluorophenoxy)-N-{3-[(4-ethoxy-6-methylpyrimidin-2-yl)amino]bicyclo[1.1.1]pentan-1-yl}acetamide] gave an EC50 of over 2000 nM. For `CC(C)(C)c1cc(C(=O)NC23CCC(NC(=O)COc4ccc(Cl)c(F)c4)(CC2)C(O)C3)on1` (stereo not drawn) [Compound 353, 3-tert-butyl-N-{4-[2-(4-chloro-3-fluorophenoxy)acetamido]-3-hydroxybicyclo[2.2.2]octan-1-yl}-1,2-oxazole-5-carboxamide], the EC50 was 50 to 250 nM. `Cc1nn(C)c(C(=O)NC23CCC(NC(=O)COc4ccc5c(c4)OC(F)(F)O5)(CC2)[C@@H](O)C3)c1F` [Compound 637, N-[(3S)-4-{2-[(2,2-difluoro-2H-1,3-benzodioxol-5-yl)oxy]acetamido}-3-hydroxybicyclo[2.2.2]octan-1-yl]-4-fluoro-1,3-dimethyl-1H-pyrazole-5-carboxamide] gave an EC50 of 250 to 1000 nM.
